Reference: patent US12440500B2, “Phytoecdysones and the derivatives thereof for use in the treatment of neuromuscular diseases” (BIOPHYTIS, priority 2019, dated 2025)

Tested on: SMA mice
Test: Grip test (muscular fatigability)
Format: in vivo, mouse
Protocol: Phenotypic analyses of type 2 severe SMA mice treated or not starting from P0 with BIO101 were conducted. Longitudinally every two days, a test was conducted of the motor capacities of the mice from P5 to P9. The inventors evaluated the spontaneous displacement capacities by the open-field test, as well as the muscular fatigability by grip test, such as described hereinabove (Biondi et al., 2008; Branchu et al., 2013; Chali et al., 2016).
Indeed, the number of squares that they are able to cross is 10 at P5, 6 at P7 and 8 at P9 versus 17 at P5, 12 at P7 and 24 at P9 in the group of healthy control mice (with p<0.01, p<0.0001 and p<0.001 respectively). […] At P9, this difference is not significant but the treatment with BIO101 tends to have a beneficial effect with mice that are able to cross 11 squares in the group of SMA mice BIO101 in relation to 8 squares in the SMA Vehicle group, p=ns). In order to evaluate muscular fatigability, the gripping force of the hind feet of the mice was tested from P5 to P9 (grip test). The mice are suspended via their hind feet from a thin metal rod suspended in the air, horizontally. The time spent hanging on is recorded. Each mouse was subjected to five successive attempts with a rest period of one minute between two tests. Only the best test was retained for the evaluation of the muscular functions.

`CC(C)(O)CC[C@@H](O)[C@](C)(O)[C@H]1CC[C@@]2(O)C3=CC(=O)[C@@H]4C[C@@H](O)[C@@H](O)C[C@]4(C)[C@H]3CC[C@]12C` [BIO101, 20-hydroxyecdysone] was tested, and the “hanging time (grip test)” value (P5, SMA mice (vehicle 0.2), p<0.05) was 2.3 s, the “hanging time (grip test)” value (P7, SMA mice (vehicle 6.2), p=ns) was 12.2 s and the “hanging time (grip test)” value (P9, SMA mice (vehicle 5.6), p<0.01) was 20.9 s.
